Values quoted from earlier work as cited in patent publication EP0495131B1, “AGENT FOR PREVENTING AND TREATING HEPATITIS” (priority 1990, dated 1992).

Tested on: hepatitis, especially B-type hepatitis
Conditions: percentage of patients in which antigen is converted into negative and antibody into positive; anti-virus agents for hepatitis

Structure (SMILES)	rate of the seroconversion (SC rate)
Nc1nc2c(ncn2COCCO)c(=O)[nH]1 [acyclovir]	about 27%
Nc1ncnc2c1ncn2[C@@H]1O[C@H](CO)[C@@H](O)[C@@H]1O [Ara-A, adenine arabinoside]	0-30%
